One test concerns MeWo melanoma. Description: In vivo growth of MeWo melanoma xenografts in nu/nu mice. The arrangement: species or system human. To be noted: MeWo-RFP; 35 days after inoculation; Pter 30 mg/kg i.v. every 48 h and/or CRC infusion 0.3 μg/h.
In the next test the test system is MelJuso melanoma. Description: In vivo growth of MelJuso melanoma xenografts in nu/nu mice. The arrangement: species or system human. To be noted: MelJuso-RFP; 35 days after inoculation; Pter 30 mg/kg i.v. every 48 h and/or CRC infusion 0.3 μg/h.
Another test deals with ACTH. In words: Plasma ACTH levels (ELISA) in tumor-bearing mice. In kind it is in vivo. The settings on record: 6 h circadian time. An excerpt: (§1) Measurement of ACTH, Corticosterone, and NORA Levels.
(§2) Plasma levels of ACTH (Calbiotech, Inc., Spring Valley, Calif.), corticosterone (Kamiyama Biomedical Co., Seattle, Wash.), and NORA (IBL, Hamburg, Germany) were quantified by ELISA according to the instructions of the suppliers.
(In general: ELISA stands for enzyme-linked immunosorbent assay.)

The test system of test [1] is glucocorticoid receptors (GR). In words: GR content of human cancer cells by [3H]-labeled ligand whole-cell binding assay.
A further test relates to corticosterone. In words: Plasma corticosterone levels (ELISA) in tumor-bearing mice. In kind it is in vivo. The settings on record: 12 h circadian time.
From the text: as §1, §2

Another test has as its system A2058 melanoma. In words: In vivo growth of A2058 melanoma xenografts in nu/nu mice. To be noted: A2058-RFP; 35 days after inoculation; Pter 30 mg/kg i.v. every 48 h and/or CRC infusion 0.3 μg/h. Also on record: species or system human.
Another test concerns AsPC-1 pancreatic cancer. In words: In vivo growth of AsPC-1 pancreatic cancer xenografts. Also on record: species or system human. To be noted: AsPC-1-RFP; 28 days after inoculation; Pter and/or CRC.
The next test deals with BxPC-3 pancreatic cancer. In words: In vivo growth of BxPC-3 pancreatic cancer xenografts. To be noted: BxPC-3-RFP; 35 days after inoculation; Pter and/or CRC. The arrangement: species or system human.

Regarding `C[C@]12C[C@H](O)[C@H]3[C@@H](CCC4=CC(=O)CC[C@@]43C)[C@@H]1CC[C@@H]2C(=O)CO` [CRC, corticosterone, reference compound], the Tumor vol. in the test on MeWo melanoma came out at 426 ± 116 mm^3; in the test on MelJuso melanoma, 240 ± 94 mm^3; in the test on A2058 melanoma it was 857 ± 185 mm^3; in the test on AsPC-1 pancreatic cancer it was 1066 ± 235 mm^3; with BxPC-3 pancreatic cancer it was 588 ± 158 mm^3. The ACTH in the test on ACTH (AsPC-1-bearing mice, day 28) is on record as 106 ± 17 pg/mL plasma; in the test with ACTH (BxPC-3-bearing mice, day 35), 55 ± 12 pg/mL plasma. In addition, the “GR number (binding sites/cell)” value in test [1] (A2058-RFP tumors, day 35) is 80 ± 7 10^3 GR/cell; in test [1] (AsPC-1-RFP tumors, day 28), 67 ± 7 10^3 GR/cell; in test [1] (BxPC-3-RFP tumors, day 35), 134 ± 36 10^3 GR/cell; in test [1] (MeWo-RFP tumors, day 35), 49 ± 7 10^3 GR/cell; in test [1] (MelJuso-RFP tumors, day 35) it was 46 ± 6 10^3 GR/cell. For the same compound, the CRC in the test on corticosterone (A2058-bearing mice, day 35) is 205 ± 48 ng/mL plasma; with corticosterone (AsPC-1-bearing mice, day 28) it was 324 ± 48 ng/mL plasma; with corticosterone (BxPC-3-bearing mice, day 35), 177 ± 36 ng/mL plasma; in the test on corticosterone (MeWo-bearing mice, day 35), 177 ± 29 ng/mL plasma; in the test on corticosterone (MelJuso-bearing mice, day 35) it was 164 ± 41 ng/mL plasma.

These data come from patent US11179348B2, “Combination comprising pterostilbene for the treatment of cancer” (FUNDACIÓN UNIVERSIDAD CATÓLICA DE VALENCIA SAN VICENTE …, priority 2015, dated 2021).
